Values quoted from earlier work as cited in article PMC9045302, “The Characterization of an Efficient Phenylpyruvate Decarboxylase KDC4427, Involved in 2-Phenylethanol and IAA Production from Bacterial Enterobacter sp. CGMCC 5087” (Microbiology Spectrum, 2022).

Assays:
KDC4427 [1] = target: T1, KDC4427 (Enterobacter sp. CGMCC 5087, UniProt Z9M8L3KFT6); assay: coupled assay with yeast alcohol dehydrogenase, NADH at […] nm; type: biochemical; conditions: pH 7.0, 37°C, 0.2 mM ThDP, 0.1 mM MgSO4; footnote: authors' own data cited from their unpublished paper
T1 construct: tetramer stated from homology model; ThDP/Mg2+ dependent

KDC4427 [2] = target: T1, KDC4427; assay: as above; type: biochemical; conditions: pH 7.0, 37°C, 0.2 mM ThDP, 0.1 mM MgSO4; footnote: authors' own data cited from their unpublished paper; remark: listed apart in the source

| Compound | Km (KDC4427 [1]) [mM] | Km (KDC4427 [2]) [mM] |
| --- | --- | --- |
| O=C(O)C(=O)Cc1c[nH]c2ccccc12 [Indole-3-pyruvic acid] | 0.015 ± 0.002 | – |
| O=C(O)C(=O)Cc1ccccc1 [Phenylpyruvic acid] | – | 0.6 ± 0.02 |
